The values below come from publication PMC5623949, “Exploiting the 2-Amino-1,3,4-thiadiazole Scaffold To Inhibit Trypanosoma brucei Pteridine Reductase in Support of Early-Stage Drug Discovery” (ACS Omega, 2017).

SMILES strings stand for the structures. Read-outs that look alike come from different tables or passages of the source.

Data set [1] addresses T1, TbPTR1 (Trypanosoma brucei brucei, UniProt O76290).
T1 construct: made in house
T1 sequence (O76290 1-268): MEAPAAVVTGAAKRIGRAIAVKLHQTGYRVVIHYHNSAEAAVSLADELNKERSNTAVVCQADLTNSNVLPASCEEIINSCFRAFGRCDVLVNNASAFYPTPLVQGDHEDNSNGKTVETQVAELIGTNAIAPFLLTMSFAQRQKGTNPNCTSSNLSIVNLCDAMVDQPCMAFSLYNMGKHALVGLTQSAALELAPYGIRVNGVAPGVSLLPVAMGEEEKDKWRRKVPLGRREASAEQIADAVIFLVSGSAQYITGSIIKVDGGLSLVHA
Kind of data set: biochemical. Particulars: for inhibition at 50 µM: 50 μM compound, read-out: % Inhibition TbPTR1 at 50 μM.

Data set [2] has as its system T. b. brucei Lister 427 bloodstream forms. Kind of data set: In vitro activity against T. brucei (HTS SYBR Green I growth inhibition assay). It counts as cell-based, Trypanosoma brucei brucei. Particulars: Trypanosoma brucei, standard deviation within ±10% of the value; for inhibition at 50 µM: read-out: % Inhibition T. brucei at 50 μM; for EC50: read-out: EC50 T. brucei.

The target in data set [3] is T2, hERG (Homo sapiens, UniProt Q12809).
T2 construct: gene KCNH2
Details: hERG inhibition liability assay. The procedure:
(§1) Independent of the effect of any antiparasitic potential of compounds, they were evaluated using a panel of early-toxicity assays comprising cytotoxicity (A549, human lung adenocarcinoma epithelial cell line and WI-38, human lung fibroblasts), mitochondrial toxicity (786-O, human renal carcinoma cell line), hERG inhibition,[31] cytochrome P450 inhibition (CYP1A2, CYP2C9, CYP2C19, CYP2D6, and CYP3A4),[31] and Aurora B kinase inhibition. […] For the two compounds active against TbPTR1 (4m and 4o), IC50 against hERG, cytochrome P450, and mitochondrial toxicity were determined (reported in Supporting Information). We observed that the dose of compounds 4m, 4o, 4c, and 3k was 4 μM in the potentiation assays. […] In the case of hERG, CYP2D6, CYP2A9, CYP2C19, and mitochondrial toxicity, there is a selectivity index of around 3–4 fold, thus showing an acceptable profile.  Figure 10 Summary heat map of the in vitro assays to determine possible liability issues for all synthesized compounds. Assays were performed to assess inhibition of hERG and five CYP isoforms (1A2, 2C9, 2C19, 2D6, and 3A4), growth inhibition of A549 and W1-38 cell lines, and mitochondrial toxicity at 10 μM. The hDHFR inhibition was determined at 100 μM. The data, expressed as percentage values, were organized by adopting a color code for rapid and intuitive visualization. The ideal compound should have all tiles blue, indicating a safe toxicological profile for progressing into the development pipeline. The cells are colored from blue (100% of cell growth at the tested concentration) to red (0% of cell growth at the tested concentration) for A549 and W1-38 and from blue (0% of inhibitory activity at the tested concentration) to red (100% of inhibitory activity at the tested concentration) for CYP isoforms, hERG, hDHFR, and mitochondrial toxicity.

The target in data set [4] is T3, CYP1A2 (Homo sapiens, UniProt P05177).
T3 sequence (P05177 1-516): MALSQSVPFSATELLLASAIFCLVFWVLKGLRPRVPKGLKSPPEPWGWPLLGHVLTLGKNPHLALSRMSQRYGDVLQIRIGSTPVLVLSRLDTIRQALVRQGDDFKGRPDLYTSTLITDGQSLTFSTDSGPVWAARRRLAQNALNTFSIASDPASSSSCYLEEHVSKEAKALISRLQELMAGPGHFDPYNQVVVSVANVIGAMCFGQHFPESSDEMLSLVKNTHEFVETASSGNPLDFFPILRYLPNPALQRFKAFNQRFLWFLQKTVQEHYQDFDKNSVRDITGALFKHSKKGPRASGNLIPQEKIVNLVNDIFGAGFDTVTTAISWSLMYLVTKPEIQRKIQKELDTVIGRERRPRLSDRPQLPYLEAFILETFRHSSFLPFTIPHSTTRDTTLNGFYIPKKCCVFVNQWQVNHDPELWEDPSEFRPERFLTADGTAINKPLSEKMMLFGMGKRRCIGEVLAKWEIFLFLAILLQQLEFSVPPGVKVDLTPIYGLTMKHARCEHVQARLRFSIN
Kind of data set: in vitro. Details: cytochrome P450 isoform inhibition liability assay. The procedure: as §1

In data set [5] the target is CYP2C19 (Homo sapiens, UniProt P33261). Description: in vitro. Details: cytochrome P450 isoform inhibition liability assay. The procedure:
as §1

Data set [6] addresses CYP2C9 (Homo sapiens, UniProt P11712). Kind of data set: in vitro. Details: cytochrome P450 isoform inhibition liability assay. The procedure: as §1
In data set [7] the target is CYP2D6 (Homo sapiens, UniProt P10635). Description: in vitro. Set-up: cytochrome P450 isoform inhibition liability assay. The procedure:
as §1

Data set [8] deals with CYP3A4 (Homo sapiens, UniProt P08684). Kind of data set: in vitro. Set-up: cytochrome P450 isoform inhibition liability assay. The procedure: as §1
Data set [9] deals with T4, hDHFR (Homo sapiens, UniProt P00374).
T4 construct: gene DHFR
T4 sequence (P00374 1-187): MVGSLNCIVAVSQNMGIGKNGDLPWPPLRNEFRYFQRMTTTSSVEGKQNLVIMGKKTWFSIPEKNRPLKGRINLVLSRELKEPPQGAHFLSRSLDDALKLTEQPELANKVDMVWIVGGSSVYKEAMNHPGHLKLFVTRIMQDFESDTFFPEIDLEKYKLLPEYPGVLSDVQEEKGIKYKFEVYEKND
Kind of data set: biochemical. Details: human DHFR enzyme inhibition. The procedure: Figure 10 Summary heat map of the in vitro assays to determine possible liability issues for all synthesized compounds. Assays were performed to assess inhibition of hERG and five CYP isoforms (1A2, 2C9, 2C19, 2D6, and 3A4), growth inhibition of A549 and W1-38 cell lines, and mitochondrial toxicity at 10 μM. The hDHFR inhibition was determined at 100 μM. The data, expressed as percentage values, were organized by adopting a color code for rapid and intuitive visualization. The ideal compound should have all tiles blue, indicating a safe toxicological profile for progressing into the development pipeline. The cells are colored from blue (100% of cell growth at the tested concentration) to red (0% of cell growth at the tested concentration) for A549 and W1-38 and from blue (0% of inhibitory activity at the tested concentration) to red (100% of inhibitory activity at the tested concentration) for CYP isoforms, hERG, hDHFR, and mitochondrial toxicity.

Data set [10] can be described thus: in vitro. Particulars: human, a549 cells; read-out: % cell growth A549 at 10uM. Details: cytotoxicity, per cent cell growth of A549 cells. The procedure: as §1
Data set [11] in a line: in vitro. Details: cytotoxicity, per cent cell growth of WI-38 fibroblasts. The conditions noted are these: human, wi-38 cells; read-out: % cell growth W1-38 at 10uM. The procedure: as §1
Data set [12] deals with 786-O. Kind of data set: cells. The conditions noted are these: Homo sapiens, 786-0; mitochondrial toxicity. Details: mitochondrial toxicity in 786-O renal carcinoma cells. The procedure:
as §1

CYP2C9, sequence (P11712 whole entry, canonical isoform): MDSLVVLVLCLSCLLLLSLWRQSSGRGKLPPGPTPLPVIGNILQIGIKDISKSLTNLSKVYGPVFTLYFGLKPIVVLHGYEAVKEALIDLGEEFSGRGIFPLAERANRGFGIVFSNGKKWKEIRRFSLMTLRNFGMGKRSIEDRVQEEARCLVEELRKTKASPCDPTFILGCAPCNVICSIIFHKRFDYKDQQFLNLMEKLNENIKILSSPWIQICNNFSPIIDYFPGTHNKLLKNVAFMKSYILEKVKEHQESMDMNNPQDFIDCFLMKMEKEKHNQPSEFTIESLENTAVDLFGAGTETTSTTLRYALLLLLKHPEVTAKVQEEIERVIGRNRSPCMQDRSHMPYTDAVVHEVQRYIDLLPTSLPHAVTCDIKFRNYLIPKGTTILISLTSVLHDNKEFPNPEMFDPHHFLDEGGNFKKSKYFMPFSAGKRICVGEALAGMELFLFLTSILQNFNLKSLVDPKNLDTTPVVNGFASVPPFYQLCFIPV
T2 sequence (Q12809 whole entry): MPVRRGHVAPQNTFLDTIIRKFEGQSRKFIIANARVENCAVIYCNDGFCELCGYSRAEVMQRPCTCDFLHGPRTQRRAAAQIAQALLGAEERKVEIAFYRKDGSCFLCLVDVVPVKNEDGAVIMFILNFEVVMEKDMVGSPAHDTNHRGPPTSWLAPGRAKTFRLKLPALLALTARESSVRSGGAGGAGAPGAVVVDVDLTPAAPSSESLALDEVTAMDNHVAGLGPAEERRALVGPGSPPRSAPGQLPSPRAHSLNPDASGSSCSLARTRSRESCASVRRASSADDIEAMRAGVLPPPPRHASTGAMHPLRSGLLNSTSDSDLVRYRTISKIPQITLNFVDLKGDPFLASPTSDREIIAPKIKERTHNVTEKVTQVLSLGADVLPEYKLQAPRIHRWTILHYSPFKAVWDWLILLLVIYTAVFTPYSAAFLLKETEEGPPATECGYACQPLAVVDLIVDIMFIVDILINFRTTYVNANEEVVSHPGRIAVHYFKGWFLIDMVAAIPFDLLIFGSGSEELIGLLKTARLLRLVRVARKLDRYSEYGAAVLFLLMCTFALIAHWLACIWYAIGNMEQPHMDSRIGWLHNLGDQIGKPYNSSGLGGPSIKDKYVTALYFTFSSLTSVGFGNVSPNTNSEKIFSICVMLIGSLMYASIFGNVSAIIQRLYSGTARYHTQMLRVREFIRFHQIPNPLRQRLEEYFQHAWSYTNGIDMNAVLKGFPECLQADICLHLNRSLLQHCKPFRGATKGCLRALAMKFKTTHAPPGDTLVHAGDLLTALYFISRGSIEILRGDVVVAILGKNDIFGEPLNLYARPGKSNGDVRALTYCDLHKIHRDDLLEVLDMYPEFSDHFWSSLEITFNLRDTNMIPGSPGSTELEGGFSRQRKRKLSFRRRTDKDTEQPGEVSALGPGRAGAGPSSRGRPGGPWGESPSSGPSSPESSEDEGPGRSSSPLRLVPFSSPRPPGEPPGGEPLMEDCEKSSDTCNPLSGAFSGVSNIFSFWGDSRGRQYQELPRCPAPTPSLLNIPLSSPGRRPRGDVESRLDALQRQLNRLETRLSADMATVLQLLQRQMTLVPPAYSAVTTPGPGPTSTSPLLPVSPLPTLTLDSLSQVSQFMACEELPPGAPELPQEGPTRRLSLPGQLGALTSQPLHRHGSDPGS
CYP3A4, sequence (P08684 whole entry, canonical isoform): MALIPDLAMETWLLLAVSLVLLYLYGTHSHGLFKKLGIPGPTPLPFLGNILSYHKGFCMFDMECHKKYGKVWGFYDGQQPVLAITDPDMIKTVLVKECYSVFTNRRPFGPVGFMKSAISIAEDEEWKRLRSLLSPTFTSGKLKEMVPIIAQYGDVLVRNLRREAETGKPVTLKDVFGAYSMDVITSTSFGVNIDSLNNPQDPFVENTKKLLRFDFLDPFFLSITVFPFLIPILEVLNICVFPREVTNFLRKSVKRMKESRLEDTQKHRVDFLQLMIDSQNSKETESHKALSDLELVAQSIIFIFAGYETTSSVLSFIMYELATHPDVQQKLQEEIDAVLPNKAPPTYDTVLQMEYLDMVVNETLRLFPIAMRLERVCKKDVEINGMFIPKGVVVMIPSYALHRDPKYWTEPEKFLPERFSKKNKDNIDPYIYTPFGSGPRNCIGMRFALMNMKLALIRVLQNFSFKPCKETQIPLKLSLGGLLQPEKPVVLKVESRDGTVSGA
CYP2C19, sequence (P33261 whole entry, canonical isoform): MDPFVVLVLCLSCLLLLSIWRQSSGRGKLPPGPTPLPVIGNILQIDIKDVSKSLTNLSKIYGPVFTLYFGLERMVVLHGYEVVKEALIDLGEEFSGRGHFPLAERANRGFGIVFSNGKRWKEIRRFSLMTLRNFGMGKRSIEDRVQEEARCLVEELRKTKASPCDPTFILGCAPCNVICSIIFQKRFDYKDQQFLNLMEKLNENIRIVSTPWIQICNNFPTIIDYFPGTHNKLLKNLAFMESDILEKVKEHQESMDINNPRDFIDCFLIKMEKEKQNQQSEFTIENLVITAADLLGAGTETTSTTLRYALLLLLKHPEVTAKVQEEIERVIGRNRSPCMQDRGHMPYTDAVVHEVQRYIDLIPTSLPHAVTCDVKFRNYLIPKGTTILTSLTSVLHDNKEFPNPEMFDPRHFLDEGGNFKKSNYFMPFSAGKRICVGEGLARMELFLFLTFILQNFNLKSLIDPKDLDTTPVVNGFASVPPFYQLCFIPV
CYP2D6, sequence (P10635 whole entry, canonical isoform): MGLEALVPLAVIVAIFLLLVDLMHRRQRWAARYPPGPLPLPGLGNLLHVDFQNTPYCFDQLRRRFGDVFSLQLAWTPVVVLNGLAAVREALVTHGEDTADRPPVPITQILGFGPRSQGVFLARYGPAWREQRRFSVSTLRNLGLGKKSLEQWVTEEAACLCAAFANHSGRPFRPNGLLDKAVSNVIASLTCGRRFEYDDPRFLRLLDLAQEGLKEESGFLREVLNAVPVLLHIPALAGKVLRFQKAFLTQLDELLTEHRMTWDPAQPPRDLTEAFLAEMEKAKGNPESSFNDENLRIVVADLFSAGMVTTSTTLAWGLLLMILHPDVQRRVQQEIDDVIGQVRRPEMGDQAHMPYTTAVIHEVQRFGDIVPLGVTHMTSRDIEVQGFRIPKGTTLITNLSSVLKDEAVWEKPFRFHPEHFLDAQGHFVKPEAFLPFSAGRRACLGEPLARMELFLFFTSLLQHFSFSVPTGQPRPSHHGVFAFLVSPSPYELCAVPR

Turning to `Nc1cccc(-c2nnc(N)s2)c1` [1j], the inhibition at 50 µM was found to be 27 ± 0.4% in data set [1] and 1% in [2]. For the same compound, the inhibition at 10 µM in [3] is 32.6 ± 34.3%; in data set [4], 5.3 ± 5.1%; in data set [5] it was -45.8 ± 11.8%; in data set [6] it was -20.2 ± 7.3%; in data set [7], -51 ± 8.9%; in data set [8] it was -14.9 ± 3.9%. Besides, the inhibition at 100 µM in [9] was determined as 18%. In addition, the viability at 10 µM in [10] is 134 ± 4.7%; in [11], 92.5 ± 7.8%.
`Nc1nnc(-c2ccccc2Cc2ccccc2)s1` [1m, 5-(2-benzylphenyl)-1,3,4-thiadiazol-2-amine]: the inhibition at 10 µM stood at 68.1 ± 1% in data set [4]; 90.5 ± 0.6% in [5]; 36.5 ± 5.4% in data set [6]; 69.2 ± 4.5% in [7]; 47.5 ± 4.8% in data set [8]; 20% in data set [9].
On to `N#Cc1ccc(Cc2ccccc2-c2nnc(N)s2)cc1` [1n, 4-(2-(5-amino-1,3,4-thiadiazol-2-yl)benzyl)benzonitrile], for which the inhibition at 10 µM in data set [4] was found to be 56.2 ± 0.5%; in data set [5], 104 ± 2%; in [6], 59.8 ± 4.9%; in data set [7], 75.4 ± 5.2%; in data set [8], 69.6 ± 3.25%. Besides, the inhibition at 25 µM in data set [9] (25 uM) came out at 37%.
Take `Nc1nnc(-c2cccc(-c3cccc(C(F)(F)F)c3)c2)s1` [2d]: the inhibition at 50 µM in data set [1] came out at 4.6 ± 1%; in [2], 94.8%. The EC50 in [2] is 37 µM. The inhibition at 10 µM came to 100 ± 2.1% in [4]; 43.6 ± 2.1% in data set [5]; 46.1 ± 5.4% in [6]; 31.1 ± 4.3% in data set [7]; 33.9 ± 3.8% in [8]; 34% in data set [9].
Turning to `Nc1nnc(-c2cccc(-c3ccc(C(F)(F)F)cc3)c2)s1` [2e], the inhibition at 50 µM in [1] is 6.6 ± 0.6%; in data set [2] it was 92.1%. Further, the EC50 in [2] stood at 42 µM. Besides, the inhibition at 10 µM in data set [4] stood at 92.6 ± 1.1%; in data set [5] it was 12.3 ± 5.4%; in data set [6] it was 25.6 ± 4%; in data set [7], 20 ± 5.8%; in [8], 17.9 ± 5.3%; in data set [9] it was 25%.
For the compound `COc1ccc(-c2cccc(-c3nnc(N)s3)c2)cc1OC` [2f], the inhibition at 50 µM is 8.6 ± 0.6% in [1] and 9.5% in data set [2]. Moreover, the inhibition at 10 µM turned out to be 15.1 ± 4.8% in data set [3]; 92.8 ± 1.9% in data set [4]; 53.2 ± 1.6% in [6]; 19.2 ± 3.5% in data set [7]; 48.3 ± 2.4% in [8]; 1.6 ± 14.4% in data set [12]. The inhibition at 100 µM in data set [9] is 28%. In addition, the viability at 10 µM in data set [10] stood at 106 ± 4.2%; in [11], 87.5 ± 44.4%.
Consider `C[C@@H](c1cccc(C(=O)c2ccccc2)c1)c1nnc(N)s1` [3f], for which the inhibition at 50 µM was found to be 47.2 ± 0.4% in data set [1] and 88% in [2]. Further, the EC50 in data set [2] is 20 µM. The inhibition at 10 µM in data set [3] was 16 ± 6.3%; in [4] it was -14.2 ± 7.1%; in data set [5], 39.3 ± 3.2%; in [7], -12.7 ± 6.2%; in [8] it was 94.5 ± 0.8%; in data set [12] it was -3.4 ± 2.1%. Further, in data set [9], the inhibition at 100 µM came out at 51%. In addition, the viability at 10 µM in data set [10] stood at 134 ± 3.3%; in data set [11], 127 ± 21.4%.
As to `Nc1nnc(NCCc2ccccc2)s1` [4n], in data set [1], the “times less active than 4o against TbPTR1” value is listed as “about 3 times”. Besides, the inhibition at 50 µM in data set [1] turned out to be 36.7 ± 2%; in [2] it was 4%. In [1] (dose-response 0.001-100 μM), this compound showed an IC50 of 62 µM. Besides, the inhibition at 10 µM was 91.4 ± 6.2% in [3]; 22.7 ± 1.9% in data set [4]; 29.2 ± 6.6% in [5]; 30.4 ± 2.9% in data set [6]; 103 ± 0.2% in data set [7]; 25.1 ± 4.3% in data set [8]. The inhibition at 100 µM in data set [9] is 19%. Besides, the results for the viability at 10 µM in data set [10] and in [11] were 112 ± 5.4% and 66.1 ± 3.1%, respectively.

The inhibition is the drop in the measured response relative to a control, in per cent. By EC50 is commonly meant the concentration that produces a half-maximal response. One may read the IC50 as the concentration that gives 50% inhibition.
